Data set [1] deals with T1, P-glycoprotein (Oryctolagus cuniculus, UniProt Q6UUW3).
T1 construct: from tissue; host or cells: rabbit intestinal mucosa (tissue perfusion / diffusion cells)
The experiment in a line: Apical to basolateral transport of 14C-paclitaxel across rabbit intestinal mucosa with and without glycol ethers or verapamil. The class given is in vitro ADME. As for the experimental part: Briefly, fresh mucosal samples are collected from female, white New Zealand rabbits, are separated from underlying connective tissue, and are mounted into modified Franz-type diffusion cells (5 mm diameter). […] Radioactivity is determined by liquid scintillation counting using a Beckman LS 6500. Each transport experiment is performed in four replicate tissue samples. […] Individual and mean Papp values with corresponding standard deviations (S.D.) are calculated for each group. Statistical significance is tested by one-way analysis of variance (ANOVA) using Tukey's family error at p<0.05. […]

For data set [2], the system named is cytochrome P450. The experiment in a line: Cytochrome P450-mediated oxidation of coumarin to 7α-hydroxycoumarin by rabbit liver microsomes. The class given is biochemical. The settings on record: 1% glycol ether. How it is done:
To evaluate the effect of glycol ethers on cytochrome P450-mediated metabolism, enzymatic conversion of coumarin to its 7α-hydroxycoumarin oxidation product by rabbit liver microsomes in the presence and absence of 5% DGMEE, 1% DBMPE, and 1% DGMBE is determined according to a protocol described previously by Pearce and co-workers (Arch. Biochem. Biophys., 298, 211-225 (1992)).
(In general: Liver microsomes are vesicles of endoplasmic reticulum, rich in cytochrome P450 enzymes.)

Data set [3] has as its system membrane efflux systems. The experiment in a line: Bidirectional transport of ritonavir across rabbit mucosa in diffusion cells (membrane efflux activity). The class given is in vitro ADME. The source says: To illustrate experimentally the functional differences in membrane efflux activity among the intestinal, vaginal, and buccal mucosal barriers, bidirectional transport of the protease inhibitor ritonavir is quantitatively assessed and results seen in FIG. 1 may be obtained (FIG. 1). Experimental procedures are described in Example 2.
Briefly, fresh mucosal samples are collected from female, white New Zealand rabbits, are separated from underlying connective tissue, and are mounted into modified Franz-type diffusion cells (5 mm diameter). Permeability studies from the apical to the basolateral as well as in the opposite direction are performed using continuous-flow perfusion chambers designed for mucosal tissue (Squier et al. J. Pharm. Sci., 86, 82-84 (1997)). ^3H-Ritonavir (˜3 μCi/mL) dissolved in 1 mL of 0.01 M PBS, pH 7.4, is applied to the donor compartment, and the perfusate in the received compartment is collected into scintillation vials through 16 hrs. Radioactivity is determined by liquid scintillation counting using a Beckman LS 6500. Each transport experiment is performed in four replicate tissue samples. Apparent permeability coefficients (Papp) are calculated from steady state flux according to Papp [cm/min]=(ΔQ/Δt)/Axc(0), where ΔQ/Δt=linear appearance rate of mass in the receiver, A=cross-sectional area (i.e., 0.20 cm^2), and c(0)=initial ritonavir concentration in the donor compartment at t=0. Individual and mean Papp values with corresponding standard deviations (S.D.) are calculated for each group. Statistical significance is tested by one-way analysis of variance (ANOVA) using Tukey's family error at p<0.05. To evaluate the contribution of membrane efflux system on ritonavir permeability Refflux was calculated as the ratio of Papp(basolateral-apical)/Papp(apical-basolateral).

T1 sequence (Q6UUW3 1-1279): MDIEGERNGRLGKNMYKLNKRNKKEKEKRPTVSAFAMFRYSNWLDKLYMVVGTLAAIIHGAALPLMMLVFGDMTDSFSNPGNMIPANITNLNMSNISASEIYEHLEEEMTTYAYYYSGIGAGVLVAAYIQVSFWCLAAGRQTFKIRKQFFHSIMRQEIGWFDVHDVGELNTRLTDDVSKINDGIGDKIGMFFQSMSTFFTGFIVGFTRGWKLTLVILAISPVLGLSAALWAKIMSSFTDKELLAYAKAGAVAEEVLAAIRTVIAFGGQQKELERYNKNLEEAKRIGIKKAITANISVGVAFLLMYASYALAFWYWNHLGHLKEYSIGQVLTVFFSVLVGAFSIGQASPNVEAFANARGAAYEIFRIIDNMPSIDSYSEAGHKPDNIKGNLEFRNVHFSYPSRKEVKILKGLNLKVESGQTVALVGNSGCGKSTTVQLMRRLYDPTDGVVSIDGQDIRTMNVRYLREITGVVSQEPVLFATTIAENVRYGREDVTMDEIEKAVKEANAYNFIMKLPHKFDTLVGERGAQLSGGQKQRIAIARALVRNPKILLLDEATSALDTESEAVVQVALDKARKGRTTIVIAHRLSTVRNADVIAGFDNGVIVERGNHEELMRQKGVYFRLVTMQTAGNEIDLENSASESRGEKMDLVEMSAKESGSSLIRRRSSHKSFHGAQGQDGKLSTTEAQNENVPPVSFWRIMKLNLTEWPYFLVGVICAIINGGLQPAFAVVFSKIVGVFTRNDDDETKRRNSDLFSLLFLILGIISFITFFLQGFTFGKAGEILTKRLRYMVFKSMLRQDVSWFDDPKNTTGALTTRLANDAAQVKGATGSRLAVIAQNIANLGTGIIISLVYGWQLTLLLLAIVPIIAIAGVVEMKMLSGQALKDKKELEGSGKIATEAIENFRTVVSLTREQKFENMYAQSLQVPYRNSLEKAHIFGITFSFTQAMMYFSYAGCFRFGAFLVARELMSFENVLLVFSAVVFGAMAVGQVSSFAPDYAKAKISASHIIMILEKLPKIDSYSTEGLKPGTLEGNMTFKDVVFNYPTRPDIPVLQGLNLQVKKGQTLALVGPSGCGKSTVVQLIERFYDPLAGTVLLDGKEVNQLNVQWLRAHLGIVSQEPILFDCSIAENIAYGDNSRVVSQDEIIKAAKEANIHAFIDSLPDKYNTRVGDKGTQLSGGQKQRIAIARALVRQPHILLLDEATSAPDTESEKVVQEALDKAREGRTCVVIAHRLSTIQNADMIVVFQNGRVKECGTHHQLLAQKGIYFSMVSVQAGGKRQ

Take `CCCOCCOCCO` [DGMPE, diethylene glycol monopropyl ether]: the “enhancement of intestinal absorption of paclitaxel” value (shortened to “enhancement”) in data set [1] (1% in transport buffer) is on record as 2.5 fold.

Regarding `CCCCOCCOCCO` [DGMBE, diethylene glycol monobutyl ether], in data set [2], the “reduction of formation of the 7α-hydroxycoumarin metabolite” value is “about 42%”. In addition, in data set [1] (1% in transport buffer), the “enhancement” value came to 4.1 fold. On to `CCOCCOCCO` [DGMEE, diethylene glycol mono 2-ethyl ether], for which the “enhancement” value in data set [1] (5% in transport buffer) was 1.8 fold. `CC(C)c1nc(CN(C)C(=O)N[C@H](C(=O)N[C@@H](Cc2ccccc2)C[C@H](O)[C@H](Cc2ccccc2)NC(=O)OCc2cncs2)C(C)C)cs1` [ritonavir]: the “Refflux compared with intestinal barrier” value in data set [3] (buccal rabbit epithelium in vitro) and in data set [3] (vaginal rabbit epithelium in vitro) was “significantly smaller” in each case. Moreover, in data set [3] (intestinal rabbit mucosa in vitro, 3H-ritonavir), the “basolateral to apical flux relative to the opposite direction (Refflux)” value is 9.2 fold.

The values are drawn from patent US8178123B2, “Method for augmentation of intraepithelial and systemic exposure of therapeutic agents having substrate activity for cytochrome P450 enzymes and membrane efflux systems following vaginal and oral cavity administration” (Femina Pharma Incorporated, priority 2001, dated 2012).
